In experiment [1] the target is T1, CRF2R (Homo sapiens, UniProt Q13324).
T1 sequence (Q13324 1-411): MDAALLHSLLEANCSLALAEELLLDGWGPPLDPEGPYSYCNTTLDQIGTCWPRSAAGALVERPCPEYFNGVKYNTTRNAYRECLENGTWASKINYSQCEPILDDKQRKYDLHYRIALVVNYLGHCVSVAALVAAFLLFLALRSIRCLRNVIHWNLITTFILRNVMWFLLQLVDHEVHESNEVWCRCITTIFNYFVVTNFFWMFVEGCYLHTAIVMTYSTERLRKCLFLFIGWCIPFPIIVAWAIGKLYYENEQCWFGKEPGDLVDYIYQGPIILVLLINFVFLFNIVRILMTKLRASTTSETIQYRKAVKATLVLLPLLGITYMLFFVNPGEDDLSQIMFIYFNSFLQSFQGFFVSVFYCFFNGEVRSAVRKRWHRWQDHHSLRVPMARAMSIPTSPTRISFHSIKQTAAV
Put plainly: CRF2R agonist activation (EC50 / Emax), called comparative CRF binding. The class given is cell-based. The settings on record: for Emax: read-out: CRF2R Emax. Put shortly: (§1)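 Cells expressing full-length human CRF1R or CRF2R were exposed to peptide or vehicle control, and receptor activation was gauged as cAMP induction. cAMP was measured in cell lysates or via a cAMP-responsive element driving a reporter gene such as luciferase, CAT, GFP or alkaline phosphatase.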

Experiment [2] addresses T2, CRF1R (Homo sapiens, UniProt P34998).
T2 sequence (P34998 24-415): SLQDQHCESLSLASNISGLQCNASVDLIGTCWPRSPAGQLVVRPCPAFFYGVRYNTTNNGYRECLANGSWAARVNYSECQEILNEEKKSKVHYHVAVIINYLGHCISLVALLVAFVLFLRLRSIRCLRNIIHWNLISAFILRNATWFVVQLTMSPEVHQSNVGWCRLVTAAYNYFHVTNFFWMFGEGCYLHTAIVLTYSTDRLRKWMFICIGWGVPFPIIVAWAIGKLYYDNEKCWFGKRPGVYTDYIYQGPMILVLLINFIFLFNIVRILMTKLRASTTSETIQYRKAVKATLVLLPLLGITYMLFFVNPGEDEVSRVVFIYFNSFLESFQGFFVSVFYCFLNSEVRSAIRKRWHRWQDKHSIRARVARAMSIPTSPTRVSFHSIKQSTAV
Put plainly: CRF1R agonist activation (EC50 / Emax), called comparative CRF binding. The experiment is classed as cell-based. The settings on record: for Emax: read-out: CRF1R Emax. Put shortly: as §1

Drawing on patent US6936585B2, “Corticotropin releasing factor 2 receptor agonists” (priority 2002, dated 2005), this text covers Emax and EC50 for six compounds.

Read-outs that look alike come from different tables or passages of the source. Peptide text beside a SMILES is read from it.

What is called Emax is the greatest response seen or fitted, relative to the assay's reference. By EC50 is commonly meant the midpoint of the concentration-response curve.

For `CC[C@H](C)[C@H](N)C(=O)N[C@H](C(=O)N[C@@H](CC(C)C)C(=O)N[C@@H](CO)C(=O)N[C@@H](CC(C)C)C(=O)N[C@@H](CC(=O)O)C(=O)N[C@H](C(=O)N1CCC[C@H]1C(=O)N[C@H](C(=O)NCC(=O)N[C@@H](CC(C)C)C(=O)N[C@@H](CC(C)C)C(=O)N[C@@H](CCC(N)=O)C(=O)N[C@H](C(=O)N[C@@H](CC(C)C)C(=O)N[C@@H](CC(C)C)C(=O)N[C@@H](CCC(=O)O)C(=O)N[C@@H](CCSC)C(=O)N[C@@H](C)C(=O)N[C@@H](CCCNC(=N)N)C(=O)N[C@@H](C)C(=O)N[C@@H](CCC(=O)O)C(=O)N[C@@H](CCC(N)=O)C(=O)N[C@@H](CC(C)C)C(=O)N[C@@H](C)C(=O)N[C@@H](CCC(N)=O)C(=O)N[C@@H](CCC(N)=O)C(=O)N[C@@H](C)C(=O)N[C@@H](Cc1c[nH]cn1)C(=O)N[C@@H](CO)C(=O)N[C@@H](CC(N)=O)C(=O)N[C@@H](CCCNC(=N)N)C(=O)N[C@@H](CCCCN)C(=O)N[C@@H](CC(C)C)C(=O)N[C@@H](CCSC)C(=O)N[C@@H](CCC(=O)O)C(=O)N[C@H](C(=O)N[C@H](C(N)=O)[C@@H](C)CC)[C@@H](C)CC)[C@@H](C)CC)[C@@H](C)CC)C(C)C)C(C)C` [compound 164] (H-IVLSLDVPIGLLQILLEMARAEQLAQQAHSNRKLMEII-NH2; N-terminus assumed), the figures for the Emax in experiment [1] and in experiment [2] were 92% and 26%, respectively.
Taken in the same sequence, the figures for `CC[C@H](C)[C@H](N)C(=O)N[C@H](C(=O)N[C@@H](CC(C)C)C(=O)N[C@@H](CO)C(=O)N[C@@H](CC(C)C)C(=O)N[C@@H](CC(=O)O)C(=O)N[C@H](C(=O)N1CCC[C@H]1C(=O)N[C@H](C(=O)NCC(=O)N[C@@H](CC(C)C)C(=O)N[C@@H](CC(C)C)C(=O)N[C@@H](CCC(N)=O)C(=O)N[C@@H](CCC(=O)O)C(=O)N[C@H](C(=O)N[C@@H](CC(C)C)C(=O)N[C@@H](CCC(=O)O)C(=O)N[C@@H](CCSC)C(=O)N[C@@H](C)C(=O)N[C@@H](CCCNC(=N)N)C(=O)N[C@@H](C)C(=O)N[C@@H](CCC(=O)O)C(=O)N[C@@H](CCC(N)=O)C(=O)N[C@@H](CC(C)C)C(=O)N[C@@H](C)C(=O)N[C@@H](CCC(N)=O)C(=O)N[C@@H](CCC(N)=O)C(=O)N[C@@H](C)C(=O)N[C@@H](Cc1c[nH]cn1)C(=O)N[C@@H](CO)C(=O)N[C@@H](CC(N)=O)C(=O)N[C@@H](CCCNC(=N)N)C(=O)N[C@@H](CCCCN)C(=O)N[C@@H](CC(C)C)C(=O)N[C@@H](CCSC)C(=O)N[C@@H](CCC(=O)O)C(=O)N[C@H](C(=O)N[C@H](C(N)=O)[C@@H](C)CC)[C@@H](C)CC)C(C)C)[C@@H](C)CC)C(C)C)C(C)C` [compound 165] (H-IVLSLDVPIGLLQEVLEMARAEQLAQQAHSNRKLMEII-NH2) were 75% and 19%.
With `CC[C@H](C)[C@H](N)C(=O)N[C@H](C(=O)N[C@@H](CC(C)C)C(=O)N[C@@H](CO)C(=O)N[C@@H](CC(C)C)C(=O)N[C@@H](CC(=O)O)C(=O)N[C@H](C(=O)N1CCC[C@H]1C(=O)N[C@H](C(=O)NCC(=O)N[C@@H](CC(C)C)C(=O)N[C@@H](CC(C)C)C(=O)N[C@@H](CCC(N)=O)C(=O)N[C@H](C(=O)N[C@@H](CC(C)C)C(=O)N[C@H](C(=O)N[C@@H](CCC(=O)O)C(=O)N[C@H](C(=O)N[C@@H](CCC(=O)O)C(=O)N[C@@H](CCCCN)C(=O)N[C@@H](CCC(N)=O)C(=O)N[C@@H](CCC(=O)O)C(=O)N[C@@H](CCCCN)C(=O)N[C@@H](CCC(=O)O)C(=O)N[C@@H](CCCCN)C(=O)N[C@@H](CCC(N)=O)C(=O)N[C@@H](CCC(N)=O)C(=O)N[C@@H](C)C(=O)N[C@@H](C)C(=O)N[C@@H](CC(N)=O)C(=O)N[C@@H](CC(N)=O)C(=O)N[C@@H](C)C(=O)N[C@@H](CCCNC(=N)N)C(=O)N[C@H](C(=O)N[C@@H](CC(C)C)C(=O)N[C@@H](C)C(=O)N[C@@H](CCCNC(=N)N)C(=O)N[C@H](C(N)=O)C(C)C)[C@@H](C)CC)[C@@H](C)CC)[C@@H](C)CC)[C@@H](C)CC)[C@@H](C)CC)C(C)C)C(C)C` [compound 166] (H-IVLSLDVPIGLLQILIEIEKQEKEKQQAANNARILARV-NH2; N-terminus assumed), the results for the concentration giving a half-maximal response (EC50) in experiment [1] and in experiment [2] (CRF1R EC50) were 3.7 nM and 437 nM, respectively. Besides, the maximal effect (Emax) in experiment [1] is 99%; in experiment [2], 95%.
As to `CC[C@H](C)[C@H](N)C(=O)N[C@H](C(=O)N[C@@H](CC(C)C)C(=O)N[C@@H](CO)C(=O)N[C@@H](CC(C)C)C(=O)N[C@@H](CC(=O)O)C(=O)N[C@H](C(=O)N1CCC[C@H]1C(=O)N[C@H](C(=O)NCC(=O)N[C@@H](CC(C)C)C(=O)N[C@@H](CC(C)C)C(=O)N[C@@H](CCC(N)=O)C(=O)N[C@H](C(=O)N[C@@H](CC(C)C)C(=O)N[C@@H](CC(C)C)C(=O)N[C@@H](CCC(=O)O)C(=O)N[C@@H](CCC(N)=O)C(=O)N[C@@H](CCC(=O)O)C(=O)N[C@@H](CCCCN)C(=O)N[C@@H](CCC(N)=O)C(=O)N[C@@H](CCC(=O)O)C(=O)N[C@@H](CCCCN)C(=O)N[C@@H](CCC(=O)O)C(=O)N[C@@H](CCCCN)C(=O)N[C@@H](CCC(N)=O)C(=O)N[C@@H](CCC(N)=O)C(=O)N[C@@H](C)C(=O)N[C@H](C(=O)N[C@H](C(=O)N[C@@H](CC(N)=O)C(=O)N[C@@H](C)C(=O)N[C@@H](CCCNC(=N)N)C(=O)N[C@H](C(=O)N[C@@H](CC(C)C)C(=O)N[C@@H](C)C(=O)N[C@@H](CCCNC(=N)N)C(=O)N[C@H](C(N)=O)C(C)C)[C@@H](C)CC)[C@@H](C)O)[C@@H](C)O)[C@@H](C)CC)[C@@H](C)CC)C(C)C)C(C)C` [compound 167] (H-IVLSLDVPIGLLQILLEQEKQEKEKQQATTNARILARV-NH2; N-terminus assumed), the Emax in experiment [1] amounted to 100%; in experiment [2], 15%.
Turning to `CC[C@H](C)[C@H](N)C(=O)N[C@H](C(=O)N[C@@H](CC(C)C)C(=O)N[C@@H](CO)C(=O)N[C@@H](CC(C)C)C(=O)N[C@@H](CC(=O)O)C(=O)N[C@H](C(=O)N1CCC[C@H]1C(=O)N[C@H](C(=O)NCC(=O)N[C@@H](CC(C)C)C(=O)N[C@@H](CC(C)C)C(=O)N[C@@H](CCC(N)=O)C(=O)N[C@H](C(=O)N[C@@H](CC(C)C)C(=O)N[C@H](C(=O)N[C@@H](CCC(=O)O)C(=O)N[C@H](C(=O)N[C@@H](CCC(=O)O)C(=O)N[C@@H](CCCCN)C(=O)N[C@@H](CCC(N)=O)C(=O)N[C@@H](CCC(=O)O)C(=O)N[C@@H](CCCCN)C(=O)N[C@@H](CCC(=O)O)C(=O)N[C@@H](CCCCN)C(=O)N[C@@H](CCC(N)=O)C(=O)N[C@@H](CCC(N)=O)C(=O)N[C@@H](C)C(=O)N[C@@H](C)C(=O)N[C@H](C(=O)N[C@H](C(=O)N[C@@H](CC(N)=O)C(=O)N[C@@H](C)C(=O)N[C@@H](CCCNC(=N)N)C(=O)N[C@H](C(=O)N[C@@H](CC(C)C)C(=O)N[C@@H](C)C(=O)N[C@@H](CCCNC(=N)N)C(=O)N[C@H](C(N)=O)C(C)C)[C@@H](C)CC)[C@@H](C)O)[C@@H](C)O)[C@@H](C)CC)[C@@H](C)CC)[C@@H](C)CC)[C@@H](C)CC)C(C)C)C(C)C` [compound 168] (H-IVLSLDVPIGLLQILIEIEKQEKEKQQAATTNARILARV-NH2; N-terminus assumed), the EC50 in experiment [1] (read-out: CRF2R EC50) was 4.9 nM; in experiment [2] (read-out: CRF1R EC50), at least 1000 nM. Moreover, the maximal response (Emax) in experiment [1] amounted to 75%; in experiment [2], 52%.
Take `CC[C@H](C)[C@H](NC(=O)[C@H](C)NC(=O)[C@H](CC(N)=O)NC(=O)[C@H](CCC(N)=O)NC(=O)[C@H](CCC(=O)O)NC(=O)[C@H](C)NC(=O)[C@H](CCCNC(=N)N)NC(=O)[C@H](CCC(=O)O)NC(=O)[C@H](CCCNC(=N)N)NC(=O)[C@H](CCC(N)=O)NC(=O)[C@H](CO)NC(=O)[C@H](CCC(N)=O)NC(=O)[C@@H](NC(=O)[C@H](CCCNC(=N)N)NC(=O)[C@H](C)NC(=O)[C@H](CC(C)C)NC(=O)[C@H](CCC(=O)O)NC(=O)[C@H](CC(C)C)NC(=O)[C@H](CC(C)C)NC(=O)[C@@H](NC(=O)[C@H](CCCNC(=N)N)NC(=O)[C@H](CC(C)C)NC(=O)[C@H](CC(C)C)NC(=O)[C@H](Cc1ccc(O)cc1)NC(=O)[C@@H](NC(=O)[C@@H]1CCCN1C(=O)[C@H](CC(C)C)NC(=O)[C@H](CC(=O)O)NC(=O)[C@@H](NC(=O)[C@H](CO)NC(=O)[C@H](CC(C)C)NC(=O)[C@H](CO)NC(=O)[C@@H]1CCCN1C(=O)[C@H](CC(N)=O)NC(=O)[C@@H](N)CC(=O)O)[C@@H](C)CC)[C@@H](C)O)[C@@H](C)O)[C@@H](C)O)C(=O)N[C@H](C(=O)N[C@@H](Cc1ccccc1)C(=O)N[C@@H](C)C(=O)N[C@@H](CO)C(=O)N[C@H](C(N)=O)C(C)C)[C@@H](C)CC` [compound 173] (H-DNPSLSIDLPTYLLRTLLELARTQSQRERAEQNAIIFASV-NH2): the maximal effect (Emax) in experiment [1] stood at 65.2%; in experiment [2] it was 6.05%.
